Data reported in patent publication US11839601B2, “Cannabis-enriched enzymatically treated therapeutic composition” (priority 2016, dated 2023).

Experiment: Storage of honey / cannabis extract blends at room temperature, cannabinoid content after storage (conversion)
Assay type: physicochemical
Experimental: Cannabis plants of various strains were extracted using ethanol at ethanol to plant material weight/weight ratio of 8 to 1 for 30 minutes. Ethanol was removed from the extracts by evaporation under reduced pressure and the desolventized extracts were treated at 120° C. to reach complete decarboxylation. The cannabinoids content in each of the formed extracts was analyzed using HPLC.
Pure honey samples were blended with water and with the cannabis extracts to form what looked to the eye as homogeneous blends. Comparative blends were prepared by blending honey samples with extracts, but with no water addition. Cannabinoids concentrations in the blends were calculated, using the extracts compositions and the dilution by honey and water.
The blends were stored at room temperature for different durations. Then samples were taken and analyzed for cannabinoids content.

[1] = blend of 30 gr honey + 10 gr water + extract, 11 days
[2] = blend of 30 gr honey + 10 gr water + extract, glucose 64 %, 11 days, initial (calculated) THC 752 ppm, CBD 749 ppm
[3] = comparative blend of 30 gr honey + extract, no water, glucose 85 %, 18 days, initial (calculated) CBD 1150 ppm, THC 1050 ppm

| Structure (SMILES) | Conversion [1] | Concentrations after storage [2] | Concentrations after storage [3] | Conversion of THC compared with CBD (water-diluted honey blends, 11 days) |
| --- | --- | --- | --- | --- |
| C=C(C)[C@@H]1CCC(C)=C[C@H]1c1c(O)cc(CCCCC)cc1O [CBD, cannabidiol] | 27 | 547 | 1148 |  |
| CCCCCc1cc(O)c2c(c1)OC(C)(C)[C@@H]1CCC(C)=C[C@@H]21 [THC, tetrahydrocannabinol] | 45 | 414 | 1047 | greater than that of CBD |
